Key:
human Cat S = human Cat S (Homo sapiens (Human), UniProt P25774); test: Cathepsin enzyme inhibition assay (human Cat S); assay type: biochemical; details: enzyme 1 nM, substrate Z-Val-Val-Arg-AMC 20 μM, pH 6.5
Experimental: (§1) Cathepsin Enzyme Inhibition Assay
(§2) Enzyme activity is measured by observing the increase in fluorescence intensity caused by cleavage of a peptide substrate containing a fluorophore whose emission is quenched in the intact peptide.
(§3) Assay buffer: 100 mM potassium phosphate pH 6.5, EDTA-Na 5 mM, Triton X-100 0.001%, DTT 5 mM.
(§4) Enzymes (all at 1 nM): human and mouse Cathepsin S, Cat K, Cat B, Cat L.
(§5) Substrate (20 μM): Z-Val-Val-Arg-AMC, except for Cat K which uses Z-Leu-Arg-AMC (both from Bachem).
Enzyme is added to the substance dilutions in 96-well microtitre plates and the reaction is started with substrate. […] IC50 are calculated by standard methods.
Inhibition of human Cat S, mouse Cat S, human Cat K, human Cat B, human Cat L and mouse Cat L have been measured separately.

human Cat L = human Cat L (Homo sapiens (Human), UniProt P07711); test: Cathepsin enzyme inhibition assay (human Cat L); assay type: biochemical; details: enzyme 1 nM, substrate Z-Val-Val-Arg-AMC 20 μM, pH 6.5
Sequence of human Cat L (P07711 114-333): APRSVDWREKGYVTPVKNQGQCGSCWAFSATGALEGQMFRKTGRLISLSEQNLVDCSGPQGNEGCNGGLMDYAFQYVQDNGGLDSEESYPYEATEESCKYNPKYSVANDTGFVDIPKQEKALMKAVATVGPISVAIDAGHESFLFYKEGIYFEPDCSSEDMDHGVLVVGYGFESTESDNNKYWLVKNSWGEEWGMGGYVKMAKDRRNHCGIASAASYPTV
Experimental: as §1, §2, §3, §4, §5
Excitation 360 nm, Emission 465 nm.
Enzyme is added to the substance dilutions in 96-well microtitre plates and the reaction is started with substrate. Fluorescence emission is measured over 20 minutes, during which time a linear increase is observed in the absence of inhibitor. IC50 are calculated by standard methods.
Inhibition of human Cat S, mouse Cat S, human Cat K, human Cat B, human Cat L and mouse Cat L have been measured separately. The results obtained for human Cat S and L for representative compounds of the invention are expressed in the following table in μM.

Sequence of human Cat S (P25774 115-331): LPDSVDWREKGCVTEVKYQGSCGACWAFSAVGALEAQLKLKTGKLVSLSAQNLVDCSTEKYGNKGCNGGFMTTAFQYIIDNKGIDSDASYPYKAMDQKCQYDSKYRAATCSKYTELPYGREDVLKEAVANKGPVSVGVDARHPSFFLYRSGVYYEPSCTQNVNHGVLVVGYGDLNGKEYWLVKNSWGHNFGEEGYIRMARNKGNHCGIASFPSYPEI

IC50 (human Cat S) [µM]	IC50 (human Cat L) [µM]	SMILES
–	0.0125	CN1CC(C(=O)N2C[C@H](S(=O)(=O)c3ccccc3Cl)C[C@H]2C(=O)NC2(C#N)CC2)(c2ncc(Br)cc2F)C1 [Example 14, (2S,4R)-1-[3-(5-Bromo-3-fluoro-pyridin-2-yl)-1-methyl-azetidine-3-carbonyl]-4-(2-chloro-benzenesulfonyl)-pyrrolidine-2-carboxylic acid (1-cyano-cyclopropyl)-amide]
0.000721	0.0201	CCN1CC(C(=O)N2C[C@H](S(=O)(=O)c3ccccc3Cl)C[C@H]2C(=O)NC2(C#N)CC2)(c2ncc(Br)cc2F)C1 [Example 15, (2S,4R)-1-[3-(5-Bromo-3-fluoro-pyridin-2-yl)-1-ethyl-azetidine-3-carbonyl]-4-(2-chloro-benzenesulfonyl)-pyrrolidine-2-carboxylic acid (1-cyano-cyclopropyl)-amide]
0.000525	0.0398	CN1CC(C(=O)N2C[C@H](S(=O)(=O)c3ccccc3Cl)C[C@H]2C(=O)NC2(C#N)CC2)(c2ncc(Cl)cc2F)C1 [Example 16, (2S,4R)-4-(2-Chloro-benzenesulfonyl)-1-[3-(5-chloro-3-fluoro-pyridin-2-yl)-1-methyl-azetidine-3-carbonyl]-pyrrolidine-2-carboxylic acid (1-cyano-cyclopropyl)-amide]
0.00167	0.0338	N#CC1(NC(=O)[C@@H]2C[C@@H](S(=O)(=O)c3ccc(OCC(F)(F)F)cc3Cl)CN2C(=O)C2(c3ncc(Br)cc3F)CNC2)CC1 [Example 19, (2S,4R)-1-(3-(5-Bromo-3-fluoropyridin-2-yl)azetidine-3-carbonyl)-4-(2-chloro-4-(2,2,2-trifluoroethoxy)phenylsulfonyl)-N-(1-cyanocyclopropyl)pyrrolidine-2-carboxamide]
–	0.528	C[C@H](Oc1ccc(S(=O)(=O)[C@@H]2C[C@@H](C(=O)NC3(C#N)CC3)N(C(=O)C3(c4ncc(Cl)cc4F)CCN3C(=O)OC(C)(C)C)C2)c(Cl)c1)C(F)(F)F (stereo partly drawn) [Example 27, tert-butyl 2-(5-chloro-3-fluoropyridin-2-yl)-2-((2S,4R)-4-(2-chloro-4-((S)-1,1,1-trifluoropropan-2-yloxy)phenylsulfonyl)-2-(1-cyanocyclopropylcarbamoyl)pyrrolidine-1-carbonyl)azetidine-1-carboxylate]
–	0.556	C[C@H](Oc1ccc(S(=O)(=O)[C@@H]2C[C@@H](C(=O)NC3(C#N)CC3)N(C(=O)C3(c4ncc(Cl)cc4F)CCN3C(=O)OC(C)(C)C)C2)c(Cl)c1)C(F)(F)F (stereo partly drawn) [Example 28, tert-butyl 2-(5-chloro-3-fluoropyridin-2-yl)-2-((2S,4R)-4-(2-chloro-4-((S)-1,1,1-trifluoropropan-2-yloxy)phenylsulfonyl)-2-(1-cyanocyclopropylcarbamoyl)pyrrolidine-1-carbonyl)azetidine-1-carboxylate]

Continued, molecule first:

SMILES	IC50 (human Cat S) [µM]	IC50 (human Cat L) [µM]
COc1ccc(S(=O)(=O)[C@@H]2C[C@@H](C(=O)NC3(C#N)CC3)N(C(=O)C3(c4ccc(Cl)cn4)CN(C(=O)OC(C)(C)C)C3)C2)c(Cl)c1 [Example 1, 3-[(2S,4R)-4-(2-Chloro-4-methoxy-benzenesulfonyl)-2-(1-cyano-cyclopropylcarbamoyl)-pyrrolidine-1-carbonyl]-3-(5-chloro-pyridin-2-yl)-azetidine-1-carboxylic acid tert-butyl ester]	0.00322	1.07
COc1ccc(S(=O)(=O)[C@@H]2C[C@@H](C(=O)NC3(C#N)CC3)N(C(=O)C3(c4ccc(Cl)cn4)CNC3)C2)c(Cl)c1 [Example 2, (2S,4R)-4-(2-Chloro-4-methoxy-benzenesulfonyl)-1-[3-(5-chloro-pyridin-2-yl)-azetidine-3-carbonyl]-pyrrolidine-2-carboxylic acid (1-cyano-cyclopropyl)-amide]	0.00149	0.0381
COc1ccc(S(=O)(=O)[C@@H]2C[C@@H](C(=O)NC3(C#N)CC3)N(C(=O)C3(c4ccc(Cl)cn4)CN(C)C3)C2)c(Cl)c1 [Example 3, (2S,4R)-4-(2-Chloro-4-methoxy-benzenesulfonyl)-1-[3-(5-chloro-pyridin-2-yl)-1-methyl-azetidine-3-carbonyl]-pyrrolidine-2-carboxylic acid (1-cyano-cyclopropyl)-amide]	0.0012	0.292
CC(C)(C)OC(=O)N1CC(C(=O)N2C[C@H](S(=O)(=O)c3ccc(OCC(F)(F)F)cc3Cl)C[C@H]2C(=O)NC2(C#N)CC2)(c2ccc(Cl)cn2)C1 [Example 4, 3-(5-Chloro-pyridin-2-yl)-3-[(2S,4R)-4-[2-chloro-4-(2,2,2-trifluoro-ethoxy)-benzenesulfonyl]-2-(1-cyano-cyclopropylcarbamoyl)-pyrrolidine-1-carbonyl]-azetidine-1-carboxylic acid tert-butyl ester]	0.00275	1.24
CC(C)(C)OC(=O)N1CC(C(=O)N2C[C@H](S(=O)(=O)c3ccc(OCC(F)(F)F)cc3Cl)C[C@H]2C(=O)NC2(C#N)CC2)(c2ccc(Br)cn2)C1 [Example 5, 3-(5-Bromo-pyridin-2-yl)-3-[(2S,4R)-4-[2-chloro-4-(2,2,2-trifluoro-ethoxy)-benzenesulfonyl]-2-(1-cyano-cyclopropylcarbamoyl)-pyrrolidine-1-carbonyl]-azetidine-1-carboxylic acid tert-butyl ester]	0.00369	0.753
N#CC1(NC(=O)[C@@H]2C[C@@H](S(=O)(=O)c3ccc(OCC(F)(F)F)cc3Cl)CN2C(=O)C2(c3ccc(Cl)cn3)CNC2)CC1 [Example 6, (2S,4R)-1-[3-(5-Chloro-pyridin-2-yl)-azetidine-3-carbonyl]-4-[2-chloro-4-(2,2,2-trifluoro-ethoxy)-benzenesulfonyl]-pyrrolidine-2-carboxylic acid (1-cyano-cyclopropyl)-amide]	–	0.0898
N#CC1(NC(=O)[C@@H]2C[C@@H](S(=O)(=O)c3ccc(OCC(F)(F)F)cc3Cl)CN2C(=O)C2(c3ccc(Br)cn3)CNC2)CC1 [Example 7, (2S,4R)-1-[3-(5-Bromo-pyridin-2-yl)-azetidine-3-carbonyl]-4-[2-chloro-4-(2,2,2-trifluoro-ethoxy)-benzenesulfonyl]-pyrrolidine-2-carboxylic acid (1-cyano-cyclopropyl)-amide]	0.00382	0.0735
N#CC1(NC(=O)[C@@H]2C[C@@H](S(=O)(=O)c3ccc(OCC(F)(F)F)cc3Cl)CN2C(=O)C2(c3ccc(Cl)cn3)CN(CC(F)F)C2)CC1 [Example 8, (2S,4R)-1-[3-(5-Chloro-pyridin-2-yl)-1-(2,2-difluoro-ethyl)-azetidine-3-carbonyl]-4-[2-chloro-4-(2,2,2-trifluoro-ethoxy)-benzenesulfonyl]-pyrrolidine-2-carboxylic acid (1-cyano-cyclopropyl)-amide]	0.000694	0.141
N#CC1(NC(=O)[C@@H]2C[C@@H](S(=O)(=O)c3ccc(OCC(F)(F)F)cc3Cl)CN2C(=O)C2(c3ccc(Br)cn3)CN(CC(F)F)C2)CC1 [Example 9, (2S,4R)-1-[3-(5-Bromo-pyridin-2-yl)-1-(2,2-difluoro-ethyl)-azetidine-3-carbonyl]-4-[2-chloro-4-(2,2,2-trifluoro-ethoxy)-benzenesulfonyl]-pyrrolidine-2-carboxylic acid (1-cyano-cyclopropyl)-amide]	0.000779	0.0917
CC(C)(C)OC(=O)N1CC(C(=O)N2C[C@H](S(=O)(=O)c3ccccc3Cl)C[C@H]2C(=O)NC2(C#N)CC2)(c2ncc(Cl)cc2F)C1 [Example 10, 3-[(2S,4R)-4-(2-Chloro-benzenesulfonyl)-2-(1-cyano-cyclopropylcarbamoyl)-pyrrolidine-1-carbonyl]-3-(5-chloro-3-fluoro-pyridin-2-yl)-azetidine-1-carboxylic acid tert-butyl ester]	0.00126	0.194
CC(C)(C)OC(=O)N1CC(C(=O)N2C[C@H](S(=O)(=O)c3ccccc3Cl)C[C@H]2C(=O)NC2(C#N)CC2)(c2ncc(Br)cc2F)C1 [Example 11, tert-Butyl 3-(5-bromo-3-fluoropyridin-2-yl)-3-((2S,4R)-4-(2-chlorophenylsulfonyl)-2-(1-cyanocyclopropylcarbamoyl)pyrrolidine-1-carbonyl)azetidine-1-carboxylate]	0.00127	0.0705
N#CC1(NC(=O)[C@@H]2C[C@@H](S(=O)(=O)c3ccccc3Cl)CN2C(=O)C2(c3ncc(Cl)cc3F)CNC2)CC1 [Example 12, (2S,4R)-1-(3-(5-Chloro-3-fluoropyridin-2-yl)azetidine-3-carbonyl)-4-(2-chlorophenylsulfonyl)-N-(1-cyanocyclopropyl)pyrrolidine-2-carboxamide]	0.00107	0.0236
N#CC1(NC(=O)[C@@H]2C[C@@H](S(=O)(=O)c3ccccc3Cl)CN2C(=O)C2(c3ncc(Br)cc3F)CNC2)CC1 [Example 13, (2S,4R)-1-[3-(5-Bromo-3-fluoro-pyridin-2-yl)-azetidine-3-carbonyl]-4-(2-chloro-benzenesulfonyl)-pyrrolidine-2-carboxylic acid (1-cyano-cyclopropyl)-amide]	0.00109	0.0046
